One series deals with HCV replicon. The series can be described thus: RHEPLUC assay (replicon luciferase, EC50 of single agents). The format is cell-based, Hepatitis C virus (HCV). As to conditions: Hepatitis C virus. As for the experimental part: The previously determined EC50 for each test compound is then placed in the middle of the combination study titration curve.
Test compounds are ordered at 4000× final concentration, one or two days before the assay, and are diluted 1/10 in DMSO (400× concentration). The diluted first test compound (400×) is distributed in a first low dead volume plate as described in FIG. 1. The diluted second test compound (400×) is distributed in a second low dead volume plate as described in FIG. 2.
To obtain maximum luciferase signal (0% inhibition control), 100% DMSO is added to the 200× test compound mix plate. For minimum luciferase signal (100% inhibition control), a known NS5A inhibitor (Compound A, EC50 of 0.01 nM, made as described in International Patent Application No. PCT/US2010/028653) is used at 1 nM final concentration. Accordingly, 6 μL of 200 nM Compound A is added to the 200× test compound mix plate (see FIG. 4).
On the day of the experiment, Complete growth media (10 μL) is added to all wells in a 384 well assay plate, then 150 nL per well from the test compound mix plate is added to the assay plate.
The cell monolayer is rinsed with pre-warmed PBS (˜37° C.), then pre-warmed trypsin (0.25%, ˜37° C.) is added and the cells are incubated for 2 to 5 minutes in 5% CO2 at 37° C. Complete growth media is then added, cells are mixed and counted, and then diluted in complete growth media to a final concentration of 1.0×10^5 cells/mL. […]
Bright-Glo Luciferase reagent is prepared as specified by the kit instructions and kept in the dark until the reagent has reached room temperature. […] The plate is allowed to incubate for 5 minutes at room temperature, then the plate is placed on a reader within 30 minutes after incubation is complete, and the luminescence is monitored at 0.5 seconds per well.
Using the RHEPLUC assay, EC50 values were calculated prior to initiation of combination studies for a selected Polycyclic Heterocycle Derivative of the present invention (compound 2) and for two first additional therapeutic agents of the present invention (compounds F5 and F7).
Background: In antiviral work, replicon cells carry a viral genome segment that copies itself.

The nature of series [1]: Cytotoxicity assay (CellTiter Blue). In kind it is cell-based. Particulars: CellTiter Blue, cells treated 72 hours. How it is done:
(§1) The cytotoxicity of compounds of Table 1 and of the additional therapeutic agents used in the compositions and methods of the present invention can be measure using the assay described below.
(§2) Compounds are ordered 1 or 2 days before the experiment. Compounds and cells are prepared using the method described in Example 2 for the RHEPLUC assay (See FIG. 1) or combination study (See FIG. 2)
(§3) After 3 day incubation of cells with individual test compounds, cytotoxicity is determined using CellTiter Blue as described in the assay protocol below.
(§4) The CellTiter Blue solution (4 mL) is diluted with 1× Dulbecco's PBS (16 mL). 5 μL of the resulting solution is added to each well of the 384 well assay plate containing cells treated with compound for 72 hours. The plate is shaken for 10 seconds, then incubated in 5% CO2 at 37° C. for 1 hour. The plate is then shaken again for 10 seconds and the fluorescence is measured at excitation wavelength 540 nm and emission wavelength 590 nm.
(§5) NOTE: cells (all genotypes and mutants) are cultured in DMEM/10% FBS in the presence of G418. During the assay G418 is absent.
(§6) For cytotoxicity assays data is analyzed to obtain the CC50 of each compound tested alone and in combination. The analysis uses the average of 100% cytotoxicity (media only without cells) and 0% cytotoxicity (100% viability, 0.5% DMSO in the presence of cells) to calculate the percentage of compound cytotoxicity and CC50 using the following 4 parameter equation:
(§7) Wherein average low=100% cytotoxicity (media only) and average high=100% viability (0.5% DMSO).
(§8) CC50 values were calculated for a selected Polycyclic Heterocycle Derivative of the present invention (compound 2) and for […] first additional therapeutic agents of the present invention. The therapeutic index for the selected compounds was also calculated, wherein TI=CC50/EC50.
A general note: Alamar Blue is a resazurin reagent that responds to reducing activity.

The next series deals with replicon cells. Kind of series: Cytotoxicity assay (CellTiter Blue). The format is cell-based. As to conditions: TI=CC50/EC50. How it is done:
as §1, §2, §3, §4, §5, §6, §7, §8

For series [2], the system named is genotype 1a replicon cells. The series can be described thus: 3-day cell-based HCV replicon assay (Taqman). Particulars: Hepatitis C virus. How it is done: The replicon RNA level was measured using real time PCR (Taqman assay). […] EC50 was defined as the concentration of inhibitor necessary to achieve ΔCT=1 over the projected baseline; EC90 the concentration necessary to achieve ΔCT=3.2 over the baseline. Alternatively, to quantitate the absolute amount of replicon RNA, a standard curve was established by including serially diluted T7 transcripts of replicon RNA in the Taqman assay. All Taqman reagents were from PE Applied Biosystems. Such an assay procedure was described in detail in e.g. Malcolm et al., Antimicrobial Agents and Chemotherapy 50: 1013-1020 (2006).

Series [3] deals with genotype 1a replicon cells. Kind of series: 15-day cell-based HCV replicon curing assay. More on the design: species or system Hepatitis C virus (HCV). As to conditions: genotype 1a replicon cells treated 15 days.
Where [4] appears, read: RHEPLUC assay, single agent, 72 hours incubation.

Each structure is given as a SMILES string. Where two headings read alike, the source gives them in different places.

Regarding `COC(=O)N[C@H](C(=O)N1CCC[C@H]1c1ncc(-c2ccc(-c3cc4cc(-c5cnc([C@@H]6CCCN6C(=O)[C@@H](NC(=O)OC)C(C)C)[nH]5)ccc4o3)cc2)[nH]1)C(C)C` [Compound 2], the EC50 (in general, the concentration needed to bring the measured effect to its halfway point) in the series on HCV replicon (setting [4]) was determined as 0.004 nM. The half-maximal cytotoxic concentration (CC50) (as a rule, the concentration giving 50% cytotoxicity) at 72 h in series [1] came to 9700 nM. Besides, in the series with replicon cells, the “Therapeutic Index” value came to 2425000. For the same compound, in series [2] (printed as 1×EC90, read-out: EC90), the EC90 (in general, the concentration at which the effect reaches the 90% level) was determined as 0.006 nM.
Take `COC(=O)NC(C(=O)N1CCC[C@H]1c1ncc(-c2ccc3oc(-c4ccc(-c5cnc([C@@H]6CCCN6C(=O)[C@H](NC(=O)OC)c6ccccc6)[nH]5)cc4)cc3c2)[nH]1)c1ccccc1` (stereo partly shown) [Compound A, reference compound]: the EC50 in the series on HCV replicon (known NS5A inhibitor used as 100% inhibition control, assay of the value not stated) amounted to 0.01 nM.
As for `C=C[C@@H]1C[C@]1(NC(=O)[C@@H]1C[C@@H]2CN1C(=O)[C@H](C(C)(C)C)NC(=O)O[C@@H]1C[C@H]1CCCCCc1nc3ccc(OC)cc3nc1O2)C(=O)NS(=O)(=O)C1CC1` [Compound F5], the EC50 with HCV replicon (setting [4]) was found to be 0.322 nM. For the same compound, in series [1], the CC50 at 72 h turned out to be 35000 nM. Also, the “Therapeutic Index” value in the series on replicon cells is 108865. In series [2] (printed value is three times the EC90, read-out: 3×EC90), the 90% effect concentration (EC90) came out at 7.5 nM. The “NS3 (amino acid residues 1-180) population sequence analysis, resistance mutations” value in series [3] was “low levels of D168G and P88A”.

Source of the values: patent publication US20130280214A1, “POLYCYCLIC HETEROCYCLE DERIVATIVES AND METHODS OF USE THEREOF FOR THE TREATMENT OF VIRAL DISEASES” (Merck Sharp & Dohme Corp., priority 2010, published 2013).
